The source of these data is US7842316B2, “Cosmetic compositions having extracts of Amomum melegueta and methods of treating skin” (Avon Products, Inc., priority 2007, dated 2010).

This experiment concerns the target T1, COX-2 (Ovis aries, UniProt P79208).
T1 sequence (P79208 17-603): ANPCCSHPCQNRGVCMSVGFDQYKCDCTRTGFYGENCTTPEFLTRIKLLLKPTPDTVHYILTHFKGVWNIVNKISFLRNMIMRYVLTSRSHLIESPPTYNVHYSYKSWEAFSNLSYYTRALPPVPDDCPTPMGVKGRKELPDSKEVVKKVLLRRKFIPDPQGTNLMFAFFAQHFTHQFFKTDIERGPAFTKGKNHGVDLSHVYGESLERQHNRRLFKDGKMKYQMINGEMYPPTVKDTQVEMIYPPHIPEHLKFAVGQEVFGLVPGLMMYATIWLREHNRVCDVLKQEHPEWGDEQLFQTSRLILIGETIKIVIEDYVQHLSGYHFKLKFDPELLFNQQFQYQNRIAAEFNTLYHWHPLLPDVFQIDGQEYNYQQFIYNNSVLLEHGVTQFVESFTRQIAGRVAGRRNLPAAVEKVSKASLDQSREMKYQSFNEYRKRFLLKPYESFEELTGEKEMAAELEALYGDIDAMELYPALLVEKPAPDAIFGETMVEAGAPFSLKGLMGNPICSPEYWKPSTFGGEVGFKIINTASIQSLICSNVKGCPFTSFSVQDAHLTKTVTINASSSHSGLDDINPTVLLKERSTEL
Kind of experiment: colorimetric COX (ovine) inhibitor screening assay. Type of experiment: biochemical. Particulars: Vioxx used as positive control; concentration not given.

As for `CS(=O)(=O)c1ccc(C2=C(c3ccccc3)C(=O)OC2)cc1` [Vioxx], the “level of inhibition (COX-2 inhibitory activity), positive control” value is 90%.
